In ChEMBL document CHEMBL1201861, “Genomics of Drug Sensitity in Cancer screening data, Wellcome Trust Sanger Institute”:

Experiments:
DMS-53 = assay: cells; assay type: functional, cell-based; settings: Homo sapiens;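 note: cell viability assay measuring growth inhibition of human DMS-53 cells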
Description: SANGER: Inhibition of human DMS-53 cell growth in a cell viability assay.

DV-90 = assay: cells; assay type: functional, cell-based; settings: Homo sapiens;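 note: Read-out is a viability assay, with IC50 reflecting the drop in DV-90 cell growth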
Description: SANGER: Inhibition of human DV-90 cell growth in a cell viability assay.

RERF-LC-MS = assay: cells; assay type: functional, cell-based; settings: Homo sapiens;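 note: growth inhibition of human RERF-LC-MS cells, read out by a cell viability assay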
Description: SANGER: Inhibition of human RERF-LC-MS cell growth in a cell viability assay.

HCC38 = assay: cells; assay type: functional, cell-based; settings: Homo sapiens;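 note: cell viability assay on the human HCC38 cell line, with IC50 marking the concentration that inhibits cell growth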
Description: SANGER: Inhibition of human HCC38 cell growth in a cell viability assay.

647-V = assay: cells; assay type: functional, cell-based; settings: Homo sapiens;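 note: growth inhibition of 647-V cells, read out with a cell viability assay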
Description: SANGER: Inhibition of human 647-V cell growth in a cell viability assay.

MKN-7 = assay: cells; assay type: functional, cell-based; settings: Homo sapiens;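 note: growth inhibition of MKN-7 cells, read out with a cell viability assay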
Description: SANGER: Inhibition of human MKN7 cell growth in a cell viability assay.

AN3-CA = assay: cells; assay type: functional, cell-based; settings: Homo sapiens;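 note: growth inhibition of human AN3-CA cells measured by a cell viability assay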
Description: SANGER: Inhibition of human AN3-CA cell growth in a cell viability assay.

EFE-184 = assay: cells; assay type: functional, cell-based; settings: Homo sapiens
Description: SANGER: Inhibition of human EFE-184 cell growth in a cell viability assay.

SNU-475 = assay: cells; assay type: functional, cell-based; settings: Homo sapiens
Description: SANGER: Inhibition of human SNU-475 cell growth in a cell viability assay.

NCI-H2081 = assay: cells; assay type: functional, cell-based, Homo sapiens; settings: Homo sapiens, NCI-H2081;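 note: growth inhibition of human NCI-H2081 cells, read out with a cell viability assay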
Description: SANGER: Inhibition of human NCI-H2081 cell growth in a cell viability assay.

BL-41 = assay: cells; assay type: functional, cell-based; settings: Homo sapiens;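 note: growth inhibition of human BL-41 cells, read out with a cell viability assay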
Description: SANGER: Inhibition of human BL-41 cell growth in a cell viability assay.

VMRC-RCZ = assay: cells; assay type: functional, cell-based; settings: Homo sapiens
Description: SANGER: Inhibition of human VMRC-RCZ cell growth in a cell viability assay.

8505C = assay: cells; assay type: functional, cell-based; settings: Homo sapiens
Description: SANGER: Inhibition of human 8505C cell growth in a cell viability assay.

BT-20 = assay: cells; assay type: functional, cell-based; settings: Homo sapiens;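 note: cell viability assay measuring suppression of growth in human BT-20 cells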
Description: SANGER: Inhibition of human BT-20 cell growth in a cell viability assay.

NCI-H322M = assay: cells; assay type: functional, cell-based, Homo sapiens; settings: Homo sapiens, NCI-H322M;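 note: cell viability assay measuring inhibition of growth of human NCI-H322M cells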
Description: SANGER: Inhibition of human NCI-H322M cell growth in a cell viability assay.

BFTC-909 = assay: cells; assay type: functional, cell-based; settings: Homo sapiens
Description: SANGER: Inhibition of human BFTC-909 cell growth in a cell viability assay.

EGI-1 = assay: cells; assay type: functional, cell-based; settings: Homo sapiens;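 note: cell viability readout used to gauge growth inhibition of EGI-1 cells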
Description: SANGER: Inhibition of human EGI-1 cell growth in a cell viability assay.

MDA-MB-453 = assay: cells; assay type: functional, cell-based; settings: Homo sapiens
Description: SANGER: Inhibition of human MDA-MB-453 cell growth in a cell viability assay.

LCLC-97TM1 = assay: cells; assay type: functional, cell-based; settings: Homo sapiens;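 note: cell viability assay measuring growth inhibition of human LCLC-97TM1 cells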
Description: SANGER: Inhibition of human LCLC-97TM1 cell growth in a cell viability assay.

P12-Ichikawa = assay: cells; assay type: functional, cell-based; settings: Homo sapiens
IGROV-1 = assay: cells; assay type: functional, cell-based; settings: Homo sapiens;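 note: reduction of IGROV-1 cell growth, read out with a viability assay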
Description: SANGER: Inhibition of human IGROV-1 cell growth in a cell viability assay.

NCI-H2141 = assay: cells; assay type: functional, cell-based, Homo sapiens; settings: Homo sapiens, NCI-H2141;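 note: growth inhibition of human NCI-H2141 cells, read out with a cell viability assay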
Description: SANGER: Inhibition of human NCI-H2141 cell growth in a cell viability assay.

IPC-298 = assay: SANGER: Inhibition of human IPC-298 cell growth in a cell viability assay.; assay type: functional, cell-based
CAL-33 = assay: cells; assay type: functional, cell-based; settings: Homo sapiens;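 note: growth inhibition of CAL-33 cells, read out with a cell viability assay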
Description: SANGER: Inhibition of human CAL-33 cell growth in a cell viability assay.

MCF7 = assay: cells; assay type: functional, cell-based; settings: Homo sapiens;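 note: growth inhibition of human MCF7 cells, read out with a cell viability assay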
Description: SANGER: Inhibition of human MCF7 cell growth in a cell viability assay.

U-118-MG = assay: cells; assay type: functional, cell-based; settings: Homo sapiens
Description: SANGER: Inhibition of human U-118-MG cell growth in a cell viability assay.

CAKI-1 = assay: cells; assay type: functional, cell-based; settings: Homo sapiens;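 note: growth inhibition of CAKI-1 cells, measured by a cell viability assay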
Description: SANGER: Inhibition of human CAKI-1 cell growth in a cell viability assay.

HCC1395 = assay: cells; assay type: functional, cell-based; settings: Homo sapiens;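 note: growth inhibition of HCC1395 cells, read out by a cell viability assay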
Description: SANGER: Inhibition of human HCC1395 cell growth in a cell viability assay.

CAL-54 = assay: cells; assay type: functional, cell-based; settings: Homo sapiens;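 note: growth inhibition of CAL-54 cells, read out by a viability measurement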
Description: SANGER: Inhibition of human CAL-54 cell growth in a cell viability assay.

CA46 = assay: cells; assay type: functional, cell-based, Homo sapiens; settings: Homo sapiens, CA46;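 note: growth inhibition of human CA46 cells, read out by a cell viability assay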
Description: SANGER: Inhibition of human CA46 cell growth in a cell viability assay.

MDA-MB-175-VII = assay: cells; assay type: functional, cell-based; settings: Homo sapiens
NCI-H1563 = assay: cells; assay type: functional, cell-based; settings: Homo sapiens;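 note: growth inhibition of human NCI-H1563 cells, read out with a cell viability assay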
Description: SANGER: Inhibition of human NCI-H1563 cell growth in a cell viability assay.

ME-180 = assay: cells; assay type: functional, cell-based; settings: Homo sapiens;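 note: cell viability assay measuring growth inhibition of ME-180 cells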
Description: SANGER: Inhibition of human ME-180 cell growth in a cell viability assay.

YAPC = assay: cells; assay type: functional, cell-based; settings: Homo sapiens;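 note: growth inhibition of YAPC cells, measured with a cell viability assay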
Description: SANGER: Inhibition of human YAPC cell growth in a cell viability assay.

NCI-H1734 = assay: cells; assay type: functional, cell-based; settings: Homo sapiens;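 note: growth inhibition of human NCI-H1734 cells, read out with a cell viability assay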
Description: SANGER: Inhibition of human NCI-H1734 cell growth in a cell viability assay.

SJRH30 = assay: cells; assay type: functional, cell-based; settings: Homo sapiens;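 note: growth inhibition of human SJRH30 cells, read out with a cell viability assay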
Description: SANGER: Inhibition of human SJRH30 cell growth in a cell viability assay.

MEL-JUSO = assay: cells; assay type: functional, cell-based; settings: Homo sapiens;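 note: growth inhibition of human MEL-JUSO cells, read out with a cell viability assay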
Description: SANGER: Inhibition of human MEL-JUSO cell growth in a cell viability assay.

CMK = assay: cells; assay type: functional, cell-based, Homo sapiens; settings: Homo sapiens, CMK;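 note: growth inhibition of CMK cells, read out as cell viability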
Description: SANGER: Inhibition of human CMK cell growth in a cell viability assay.

SKG-IIIa = assay: cells; assay type: functional, cell-based; settings: Homo sapiens;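 note: cell growth inhibition, read out with a cell viability assay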
Description: SANGER: Inhibition of human SKG-IIIa cell growth in a cell viability assay.

CAL-148 = assay: cells; assay type: functional, cell-based, Homo sapiens; settings: Homo sapiens, CAL-148
Description: SANGER: Inhibition of human CAL-148 cell growth in a cell viability assay.

OAW-42 = assay: cells; assay type: functional, cell-based; settings: Homo sapiens;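 note: growth inhibition of OAW-42 cells, read out with a cell viability assay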
Description: SANGER: Inhibition of human OAW-42 cell growth in a cell viability assay.

A-427 = assay: cells; assay type: functional, cell-based; settings: Homo sapiens;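 note: growth inhibition of human A-427 cells, read out by a cell viability assay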
Description: SANGER: Inhibition of human A427 cell growth in a cell viability assay.

DK-MG = assay: cells; assay type: functional, cell-based; settings: Homo sapiens;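 note: growth inhibition of DK-MG cells, read out with a cell viability assay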
Description: SANGER: Inhibition of human DK-MG cell growth in a cell viability assay.

CCF-STTG1 = assay: cells; assay type: functional, cell-based; settings: Homo sapiens;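 note: growth inhibition of human CCF-STTG1 cells, determined with a cell viability read-out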
Description: SANGER: Inhibition of human CCF-STTG1 cell growth in a cell viability assay.

TT = assay: cells; assay type: functional, cell-based; settings: Homo sapiens
Description: SANGER: Inhibition of human TT cell growth in a cell viability assay.

EW-7 = assay: SANGER: Inhibition of human EW-7 cell growth in a cell viability assay.; assay type: functional, cell-based
HuP-T3 = assay: cells; assay type: functional, cell-based; settings: Homo sapiens;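 note: HuP-T3 cell growth inhibition, read out with a cell viability assay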
Description: SANGER: Inhibition of human HuP-T3 cell growth in a cell viability assay.

MES-SA = assay: cells; assay type: functional, cell-based; settings: Homo sapiens;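 note: growth inhibition of human MES-SA cells, read out with a cell viability assay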
Description: SANGER: Inhibition of human MES-SA cell growth in a cell viability assay.

Work on `COc1ccc(-c2cc3nccn3c(Nc3ncccc3C(N)=O)n2)cc1OC` yielded an IC50 (DMS-53) of over 8000 nM, an IC50 (DV-90) of over 8000 nM and an IC50 (RERF-LC-MS) of over 8000 nM. It also gave an IC50 (HCC38) of over 8000 nM, an IC50 (647-V) of 7300 nM and an IC50 (MKN-7) of over 8000 nM. For the same compound, the IC50 (AN3-CA) was 4660 nM, the IC50 (EFE-184) was over 8000 nM and the IC50 (SNU-475) was over 8000 nM. It also gave an IC50 (NCI-H2081) of over 8000 nM, an IC50 (BL-41) of 1390 nM and an IC50 (VMRC-RCZ) of 5580 nM. For the same compound, the IC50 (8505C) was 1770 nM, the IC50 (BT-20) was over 8000 nM and the IC50 (NCI-H322M) was over 8000 nM. For the same compound, the IC50 (BFTC-909) was over 8000 nM, the IC50 (EGI-1) was over 8000 nM and the IC50 (MDA-MB-453) was over 8000 nM. The IC50 (LCLC-97TM1) was 570 nM, the IC50 (P12-Ichikawa) was 4370 nM and the IC50 (IGROV-1) was 2530 nM. The IC50 (NCI-H2141) was over 8000 nM, the IC50 (IPC-298) was over 8000 nM and the IC50 (CAL-33) was over 8000 nM. The IC50 (MCF7) was 1150 nM, the IC50 (U-118-MG) was 6780 nM and the IC50 (CAKI-1) was 6100 nM. It also gave an IC50 (HCC1395) of over 8000 nM, an IC50 (CAL-54) of over 8000 nM and an IC50 (CA46) of 1080 nM. It also gave an IC50 (MDA-MB-175-VII) of over 8000 nM, an IC50 (NCI-H1563) of over 8000 nM and an IC50 (ME-180) of over 8000 nM. The IC50 (YAPC) was over 8000 nM, the IC50 (NCI-H1734) was 4860 nM and the IC50 (SJRH30) was over 8000 nM. For the same compound, the IC50 (MEL-JUSO) was 2740 nM, the IC50 (CMK) was 682 nM and the IC50 (SKG-IIIa) was over 8000 nM. For the same compound, the IC50 (CAL-148) was over 8000 nM, the IC50 (OAW-42) was over 8000 nM and the IC50 (A-427) was 4600 nM. It also gave an IC50 (DK-MG) of over 8000 nM, an IC50 (CCF-STTG1) of 7240 nM and an IC50 (TT) of over 8000 nM. The IC50 (EW-7) was 1980 nM, the IC50 (HuP-T3) was over 8000 nM and the IC50 (MES-SA) was 960 nM.

In the case of `COC(=O)[C@H](CCSC)NC(=O)c1ccc(NC[C@@H](N)CS)cc1-c1ccccc1`, the IC50 (DMS-53) is reported as over 1020 nM, the IC50 (DV-90) is reported as over 1020 nM and the IC50 (RERF-LC-MS) is reported as over 1020 nM. It also gave an IC50 (HCC38) of over 1020 nM, an IC50 (647-V) of over 1020 nM and an IC50 (MKN-7) of over 1020 nM. For the same compound, the IC50 (AN3-CA) was over 1020 nM, the IC50 (EFE-184) was over 1020 nM and the IC50 (SNU-475) was over 1020 nM. For the same compound, the IC50 (NCI-H2081) was over 1020 nM, the IC50 (BL-41) was over 1020 nM and the IC50 (VMRC-RCZ) was over 1020 nM. The IC50 (8505C) was over 1020 nM, the IC50 (BT-20) was over 1020 nM and the IC50 (NCI-H322M) was over 1020 nM. For the same compound, the IC50 (BFTC-909) was over 1020 nM, the IC50 (EGI-1) was over 1020 nM and the IC50 (MDA-MB-453) was over 1020 nM. For the same compound, the IC50 (LCLC-97TM1) was over 1020 nM, the IC50 (P12-Ichikawa) was over 1020 nM and the IC50 (IGROV-1) was over 1020 nM. It also gave an IC50 (NCI-H2141) of over 1020 nM, an IC50 (IPC-298) of over 1020 nM and an IC50 (CAL-33) of over 1020 nM. It also gave an IC50 (MCF7) of over 1020 nM, an IC50 (U-118-MG) of over 1020 nM and an IC50 (CAKI-1) of over 1020 nM. It also gave an IC50 (HCC1395) of over 1020 nM, an IC50 (CAL-54) of over 1020 nM and an IC50 (CA46) of over 1020 nM. For the same compound, the IC50 (MDA-MB-175-VII) was over 1020 nM, the IC50 (NCI-H1563) was over 1020 nM and the IC50 (ME-180) was over 1020 nM. The IC50 (YAPC) was over 1020 nM, the IC50 (NCI-H1734) was over 1020 nM and the IC50 (SJRH30) was over 1020 nM. The IC50 (MEL-JUSO) was 184 nM, the IC50 (CMK) was over 1020 nM and the IC50 (SKG-IIIa) was over 1020 nM. For the same compound, the IC50 (CAL-148) was over 1020 nM, the IC50 (OAW-42) was over 1020 nM and the IC50 (A-427) was over 1020 nM. For the same compound, the IC50 (DK-MG) was over 1020 nM, the IC50 (CCF-STTG1) was over 1020 nM and the IC50 (TT) was over 1020 nM. For the same compound, the IC50 (EW-7) was over 1020 nM, the IC50 (HuP-T3) was over 1020 nM and the IC50 (MES-SA) was over 1020 nM.
